Source: patent publication US10414732B2, “Polymorphic compounds and uses thereof” (priority 2017, dated 2019)
Converted amounts (≈) assume the structure as drawn. Read-outs that look alike come from different tables or passages of the source.

Key:
Assay type in all cases: physicochemical
[1] = Aqueous solubility determination via HPLC calibration curve
Method: The solubility determination was made as follows. Each salt suspension was made by adding 50-100 mg of material into a minimum amount of water (0.1-0.2 mL to start). Based on solubility, additional material was added to obtain a salt suspension. The suspension was then filtered through a 0.25 μm filter and the filtrate was further diluted with water and the salt solution was analysed by HPLC. The concentration of the salt solution injected was calculated with the linear equation y=mx+c derived from the calibration curves, with Y referring to the HPLC response obtained for the salt solution injected.

[2] = Competitive slurries (cross-seeding) of free base Forms A and B, solids analysed by XRPD; conditions: for XRPD form after competitive slurry: Forms A and B equal amounts, 72 h
Method: This set of experiments was performed using various solvents and solvent combinations. Cross-seeding experiments were performed over a range of temperatures to help define the relationship between Forms A and B.
Procedure: Twenty-one cross-seeding experiments were performed by adding equal amounts of Forms A and B (weight/weight, total of 25 mg). The mixture was slurried in the given solvent/system (ca. 5 vol. 125 μl) at room temperature, then matured at a specific temperature (5° C., 25° C. or 50° C.) for 72 h. The solids were filtered, air dried and analysed by XRPD. After two days, samples 3 and 15 were completely dry and additional portions of their corresponding solvents were added, (250 μl was added to sample 3 and 248.6 μl was added to sample 15). Solids obtained were characterised by XRPD.

[3] = Characterization of the resulting solid form (hygroscopicity)
[4] = aqueous (water), filtered suspension, HPLC
[5] = water, thermodynamic from solid, aqueous (water), filtered suspension, HPLC, read-out: Solubility

CC(C)(O)c1nc2ccc(Cl)cc2cc1N [Compound A]
solubility [1, 4]: <0.1 mg/mL | Transition temperature between Form A and Form B [2]: below 50 °C | XRPD form after competitive slurry ([2]; Acetone:H2O (10%), 5° C.): Form B | XRPD form after competitive slurry ([2]; Acetone:H2O (10%), 25° C.): Form B | XRPD form after competitive slurry ([2]; Acetone:H2O (10%), 50° C.): Forms A & B | XRPD form after competitive slurry ([2]; Cyclohexane, 5° C.): Forms A & B | XRPD form after competitive slurry ([2]; Cyclohexane, 25° C.): Form B | XRPD form after competitive slurry ([2]; Cyclohexane, 50° C.): Form B | XRPD form after competitive slurry ([2]; EtOAc:Heptane, 5° C.): Form B | XRPD form after competitive slurry ([2]; EtOAc:Heptane, 25° C.): Form B | XRPD form after competitive slurry ([2]; EtOAc:Heptane, 50° C.): Form B | XRPD form after competitive slurry ([2]; Heptane, 5° C.): Form B | XRPD form after competitive slurry ([2]; Heptane, 25° C.): Form B | XRPD form after competitive slurry ([2]; Heptane, 50° C., additional solvent added): Form B | XRPD form after competitive slurry ([2]; Toluene, 5° C.): Form B | XRPD form after competitive slurry ([2]; Toluene, 25° C.): Form B | XRPD form after competitive slurry ([2]; Toluene, 50° C.): Form A | XRPD form after competitive slurry ([2]; Toluene:Cyclohexane, 5° C.): Form B | XRPD form after competitive slurry ([2]; Toluene:Cyclohexane, 25° C.): Form B | XRPD form after competitive slurry ([2]; Toluene:Cyclohexane, 50° C.): Form B | XRPD form after competitive slurry ([2]; Toluene:Heptane, 5° C.): Form B | XRPD form after competitive slurry ([2]; Toluene:Heptane, 25° C.): Form B | XRPD form after competitive slurry ([2]; Toluene:Heptane, 50° C., additional solvent added): Form B | Most stable form in competitive slurries ([2]; two anhydrous forms (Form A & Form B), under the investigated conditions): Form B | Hygroscopicity ([3]; Form A): non-hygroscopic | Hygroscopicity ([3]; Form B): slightly hygroscopic

CC(C)(O)c1nc2ccc(Cl)cc2cc1N.CS(=O)(=O)O [Compound 1]
solubility [1, 5]: > 1500 mg/mL | Aqueous solubility compared with the other compounds ([1]; water, comparison in words): highest solubility | Hygroscopicity ([3]; Form B): slightly hygroscopic

CC(C)(O)c1nc2ccc(Cl)cc2cc1N.O=S(=O)(O)c1ccccc1 [Compound 2]
Hygroscopicity ([3]; Form A): slightly hygroscopic

CC(C)(O)c1nc2ccc(Cl)cc2cc1N.O=C(O)C(=O)O [Compound 6]
solubility ([1]; water, thermodynamic from solid, Solubility): 15.6 mg/mL

CC(C)(O)c1nc2ccc(Cl)cc2cc1N.O=S(=O)(O)O [Compound 3]
solubility ([1]; thermodynamic from solid, aqueous (water), filtered suspension, HPLC, read-out: Solubility): 421 mg/mL | Hygroscopicity ([3]; Form A): slightly hygroscopic

CC(C)(O)c1nc2ccc(Cl)cc2cc1N.Cc1ccc(S(=O)(=O)O)cc1 [Compound 4]
solubility [1, 5]: 11 mg/mL

CC(C)(O)c1nc2ccc(Cl)cc2cc1N [Compound 8]
solubility [1, 4]: 35 mg/mL (≈ 148 mM)

CC(C)(O)c1nc2ccc(Cl)cc2cc1N.O=P(O)(O)O [Compound 7]
solubility [1, 5]: > 500 mg/mL | Hygroscopicity ([3]; Form A): slightly hygroscopic

CC(C)(O)c1nc2ccc(Cl)cc2cc1N [Compound 5]
solubility [1, 4]: 73 mg/mL (≈ 308 mM) | Hygroscopicity ([3]; Form A): slightly hygroscopic
